Patent US20240425478A1, “CYCLOPENTYLPYRAZOLE CDK2 INHIBITORS” (Genentech, Inc., priority 2021, published 2024)
Like-named read-outs stand apart in the source and are kept apart here. Each block holds one molecule with its values, some of them ahead of it.

What was measured:
HCT116 cells = test: p-H3 HCT-116 mitotic release cell proliferation assay (cellular CDK1); format: cell-based; details: Homo sapiens, HCT-116; Table O, cellular assay; read-out: CDK1 p-H3 IC50
Protocol: Inhibition of cellular CDK1 determined by release of cells from nocodazole-induced mitotic arrest, as measured by decrease in phospho-Histone H3. Histone H3 (Ser 10) level is detected in cell lysates by producing a Fluorescence Resonance Energy Transfer (FRET) signal between two antibodies, Phospho-Histone H3 Cryptate (acting as the donor) and Phospho-Histone H3 d2 (acting as the acceptor).
Plates are allowed to rest overnight at 37° C./5% CO2. The following morning, nocodazole is diluted in complete medium, and 5 μL is added to each test well and positive control well for a final concentration of 500 nM. Plates are then incubated for 16 hours at 37° C./5% CO2. […] 10 μL of diluted compound is then transferred to the cell plate (final DMSO concentration 0.1%). Cell plates are then incubated for 4 hours in 37° C. 5% CO2. A cell lysis buffer is prepared on ice using reagents from the Phospho-Histone H3 (Ser10) cellular kit (Cisbio-64HH3PEG). Supernatant is discarded from the cell plate and 80 μL of the supplemented cell lysis buffer (1:99 dilution of the Blocking Reagent and the 1× cell lysis buffer provided in the kit) is added to each of the experimental wells. The cell lysis reaction is allowed to proceed at room temperature while shaking vigorously for 30 minutes. The 384-well HTRF (Homogeneous Time Resolved Fluorescence) plate is prepared by adding 2 μL of each diluted antibody (Phospho-Histone H3 Cryptate antibody and Phospho-Histone H3 d2 antibody diluted 19:1 in a detection buffer) and 12 μL of the supplemented cell lysis buffer to each well in the HTRF plate. 4 μL of the cell lysate is added to the prepared HTRF plate which is then sealed and the reaction is allowed to proceed for a minimum of 2 hours at room temperature.

[1] = test system: OVISE (JCRB1043, CCNE1-amplified); test: OVISE EdU incorporation cell proliferation assay (CDK2-dependent); format: cell-based; details: for IC50: cellular assay, read-out: CDK2 OVISE IC50; for FS SKOV-3/OVISE / FS p-H3/OVISE: fold selectivity; for FS p-H3/OVISE: cellular p-H3 IC50 over OVISE IC50; for increased fold-selectivity SKOV-3/OVISE over Comparator C: (+) sign after FS SKOV-3/OVISE; for improvement in CDK2 OVISE cell potency over Comparator C: in brackets after OVISE IC50, Comparator C 5.5 μM
Procedure, shortened: (§1)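 EdU incorporation (0.5 μM final, last 8 h) follows a 16 h compound exposure at 37 °C, 5% CO2 in RPMI plus 10% FBS, 0.5% DMSO. After fixation, imaging scores EdU-positive cells; a 4-parameter logistic fit of that fraction gives IC50.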

[2] = biological target: T1, Cyclin Dependent Kinase 2/Cyclin E1 (CDK2-cycE1) (Homo sapiens, UniProt P24941); test: CDK2-cycE1 TR-FRET (LANCE) enzyme assay; format: biochemical; details: for FS CDK1/CDK2 / FS CDK4/CDK2: fold selectivity; for increased fold-selectivity CDK4/CDK2 over Comparator C: (+) sign after FS CDK4/CDK2;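 for improvement in potency against CDK2 (Ki) over Comparator C: fold lower CDK2 Ki than comparator c (Ki 0.032 µM)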
T1 construct: purchased ProQinase 0050-0055-1
Procedure, shortened: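 Kinase reaction buffer: 50 mM HEPES pH 7.5, 10 mM MgCl2, 2 mM TCEP, 0.05% BGG, 0.01% Brij 35, with 30 min compound–enzyme pre-incubation.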

[3] = biological target: T2, Cyclin Dependent Kinase 1/Cyclin A2 (CDK1-cycA2) (Homo sapiens, UniProt P06493); test: CDK1-cycA2 TR-FRET (Lance) enzyme assay; format: biochemical; details: Table O, enzymatic assay
T2 construct: purchased ProQinase 0134-0054-1
T2 sequence (P06493 whole entry): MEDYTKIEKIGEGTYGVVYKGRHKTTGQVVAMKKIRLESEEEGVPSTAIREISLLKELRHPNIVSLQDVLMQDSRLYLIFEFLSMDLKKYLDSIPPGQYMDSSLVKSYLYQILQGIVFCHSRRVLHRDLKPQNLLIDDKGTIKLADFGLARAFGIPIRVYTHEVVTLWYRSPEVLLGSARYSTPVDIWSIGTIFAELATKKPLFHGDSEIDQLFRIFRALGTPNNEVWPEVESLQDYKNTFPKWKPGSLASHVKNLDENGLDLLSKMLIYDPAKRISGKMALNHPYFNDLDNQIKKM
T2 sequence (P20248 whole entry partner): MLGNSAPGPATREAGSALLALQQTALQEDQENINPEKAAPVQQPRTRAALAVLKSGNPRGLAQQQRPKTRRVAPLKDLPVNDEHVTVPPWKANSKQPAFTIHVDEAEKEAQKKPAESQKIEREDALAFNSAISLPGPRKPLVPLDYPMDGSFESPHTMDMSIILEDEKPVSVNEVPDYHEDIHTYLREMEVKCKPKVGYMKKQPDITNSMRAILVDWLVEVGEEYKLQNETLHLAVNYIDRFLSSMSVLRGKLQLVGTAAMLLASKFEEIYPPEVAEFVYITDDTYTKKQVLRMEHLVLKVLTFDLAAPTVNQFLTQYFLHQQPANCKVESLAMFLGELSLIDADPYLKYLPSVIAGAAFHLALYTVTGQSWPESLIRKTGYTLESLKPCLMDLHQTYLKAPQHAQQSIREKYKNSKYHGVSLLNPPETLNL
Procedure, shortened: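 TR-FRET (Lance) detection of phospho-4E-BP1 with a europium-labelled antibody after EDTA quench (15 mM final); signal taken as acceptor/donor ratio. Enzyme and compound were pre-incubated 30 min in HEPES pH 7.5 buffer with MgCl2, TCEP, BGG and Brij 35. Ki derived by Morrison fit.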

SKOV-3 (ATCC HTB-77) = test: SKOV-3 EdU incorporation cell proliferation assay (CDK4/6-dependent); format: cell-based; details: Homo sapiens, cellular assay, read-out: CDK4/6 SKOV-3 IC50
Procedure, shortened: as §1

[4] = biological target: T3, Cyclin Dependent Kinase 4/Cyclin D3 (CDK4-cycD3) (Homo sapiens, UniProt P11802); test: CDK4-cycD3 TR-FRET (LANCE) enzyme assay; format: biochemical; details: Table O, enzymatic assay
T3 construct: purchased Carna Biosciences 04-105
T3 sequence (P11802 whole entry): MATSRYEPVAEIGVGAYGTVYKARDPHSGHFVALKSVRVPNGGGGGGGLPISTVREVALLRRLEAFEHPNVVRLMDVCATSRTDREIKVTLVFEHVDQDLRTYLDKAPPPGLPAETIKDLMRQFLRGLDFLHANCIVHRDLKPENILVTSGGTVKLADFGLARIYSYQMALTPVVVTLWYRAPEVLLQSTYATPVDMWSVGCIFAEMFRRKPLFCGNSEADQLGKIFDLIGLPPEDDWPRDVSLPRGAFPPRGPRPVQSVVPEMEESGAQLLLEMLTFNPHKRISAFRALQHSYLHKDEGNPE
T3 sequence (P30281 whole entry partner): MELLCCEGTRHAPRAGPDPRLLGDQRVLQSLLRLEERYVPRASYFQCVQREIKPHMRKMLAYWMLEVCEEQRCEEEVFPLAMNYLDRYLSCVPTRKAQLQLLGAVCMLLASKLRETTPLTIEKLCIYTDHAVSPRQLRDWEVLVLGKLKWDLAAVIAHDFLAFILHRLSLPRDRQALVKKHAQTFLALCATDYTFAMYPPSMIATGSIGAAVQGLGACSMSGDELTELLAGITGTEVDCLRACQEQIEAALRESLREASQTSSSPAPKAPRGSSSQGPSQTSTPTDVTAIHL
Procedure, shortened: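 Compound dose responses pre-incubated 30 min with enzyme mix in 50 mM HEPES pH 7.5, 10 mM MgCl2, 2 mM TCEP, 0.05% BGG, 0.01% Brij 35. Reaction quenched with EDTA (15 mM final); Eu-anti-phospho-4E-BP1 TR-FRET detection, acceptor/donor ratio. Ki derived by Morrison equation.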

[5] = Table O, cellular SKOV-3 IC50 over OVISE IC50
[6] = Table O, enzymatic assay, read-out: CDK2 Ki
[7] = Table O, enzymatic CDK1 Ki over CDK2 Ki
[8] = Table O, enzymatic CDK4 Ki over CDK2 Ki
[9] = Table Q, enzymatic assay, read-out: CDK2 Ki

Structure (SMILES): CC(C)NC(=O)O[C@@H]1CC[C@H](c2cc(Nc3ccnc(N)n3)n[nH]2)C1 [Example 2G, (1R,3S)-3-(3-((2-aminopyrimidin-4-yl)amino)-1H-pyrazol-5-yl)cyclopentyl isopropylcarbamate]
IC50 (HCT116 cells): 280 nM | IC50 ([1]; Table O): 280 nM | FS SKOV-3/OVISE [1, 5]: 36 | FS p-H3/OVISE ([1]; Table O): 1.0 | increased fold-selectivity SKOV-3/OVISE over Comparator C ([1]; Table Q): (+) (The (+) sign in Table Q signifies desirable increased fold-selectivity of the exemplary compounds over Comparator C) | FS SKOV-3/OVISE ([1]; Table Q, cellular): 36 | improvement in CDK2 OVISE cell potency over Comparator C ([1]; Table Q): 19.6 fold | improvement in potency against CDK2 (Ki) over Comparator C [2]: 21 fold | Ki [2, 6]: 1.5 nM | FS CDK1/CDK2 [2, 7]: 59 | FS CDK4/CDK2 [2, 8]: 100 | increased fold-selectivity CDK1/CDK2 over Comparator C ([2]; Table Q, (+) sign after FS CDK1/CDK2): (+) (The (+) sign in Table Q signifies desirable increased fold-selectivity of the exemplary compounds over Comparator C) | increased fold-selectivity CDK4/CDK2 over Comparator C ([2]; Table Q): (+) (The (+) sign in Table Q signifies desirable increased fold-selectivity of the exemplary compounds over Comparator C) | Ki [2, 9]: 1.5 nM | FS CDK1/CDK2 ([2]; Table Q, enzymatic): 59 | FS CDK4/CDK2 ([2]; Table Q, enzymatic): 100 | Ki [3]: 88 nM | IC50 (SKOV-3 (ATCC HTB-77); SK-OV-3, Table O): 10000 nM | IC50 (SKOV-3 (ATCC HTB-77); SK-OV-3, Table Q): 10000 nM | Ki [4]: 150 nM

IC50 (HCT116 cells): 46 nM | Ki [2, 6]: 0.35 nM | FS CDK1/CDK2 [2, 7]: 34 | FS CDK4/CDK2 [2, 8]: 60 | Ki [3]: 12 nM | IC50 (SKOV-3 (ATCC HTB-77); SK-OV-3, Table O): 470 nM | Ki [4]: 21 nM
Structure (SMILES): Cn1cnc(Nc2cc([C@H]3CC[C@@H](OC(=O)NC45CC(C4)C5)C3)[nH]n2)cc1=O [Example 9B, (1R,3S)-3-(3-((1-methyl-6-oxo-1,6-dihydropyrimidin-4-yl)amino)-1H-pyrazol-5-yl)cyclopentyl bicyclo[1.1.1]pentan-1-ylcarbamate]
IC50 ([1]; Table O): 33 nM | FS SKOV-3/OVISE [1, 5]: 14 | FS p-H3/OVISE ([1]; Table O): 1.4

Structure (SMILES): CNc1nccc(Nc2cc([C@H]3CC[C@@H](OC(=O)NC(C)C)C3)[nH]n2)n1 [Example 2H, (1R,3S)-3-(3-((2-(methylamino)pyrimidin-4-yl)amino)-1H-pyrazol-5-yl)cyclopentyl isopropylcarbamate]
IC50 (HCT116 cells): 32 nM | IC50 ([1]; Table O): 67 nM | FS SKOV-3/OVISE [1, 5]: 16 | FS p-H3/OVISE ([1]; Table O): 0.48 | increased fold-selectivity SKOV-3/OVISE over Comparator C ([1]; Table Q): (+) (The (+) sign in Table Q signifies desirable increased fold-selectivity of the exemplary compounds over Comparator C) | FS SKOV-3/OVISE ([1]; Table Q, cellular): 16 | improvement in CDK2 OVISE cell potency over Comparator C ([1]; Table Q): 82 fold | improvement in potency against CDK2 (Ki) over Comparator C [2]: 114 fold | Ki [2, 6]: 0.28 nM | FS CDK1/CDK2 [2, 7]: 27 | FS CDK4/CDK2 [2, 8]: 64 | increased fold-selectivity CDK4/CDK2 over Comparator C ([2]; Table Q): (+) (The (+) sign in Table Q signifies desirable increased fold-selectivity of the exemplary compounds over Comparator C) | Ki [2, 9]: 0.28 nM | FS CDK1/CDK2 ([2]; Table Q, enzymatic): 27 | FS CDK4/CDK2 ([2]; Table Q, enzymatic): 64 | Ki ([2]; read-out: CDK2 activity / potency (enzymatic assay)): ≤ 1 nM | Ki [3]: 7.5 nM | IC50 (SKOV-3 (ATCC HTB-77); SK-OV-3, Table O): 1100 nM | IC50 (SKOV-3 (ATCC HTB-77); SK-OV-3, Table Q): 1100 nM | Ki [4]: 18 nM

Structure (SMILES): COc1ncc(Nc2cc([C@H]3CC[C@@H](OC(=O)NC(C)C)C3)[nH]n2)c(C)n1 [Example 2X, (1R,3S)-3-(3-((2-methoxy-4-methylpyrimidin-5-yl)amino)-1H-pyrazol-5-yl)cyclopenty1 isopropylcarbamate]
IC50 ([1]; Table O): 2800 nM | FS SKOV-3/OVISE [1, 5]: >7.1 | increased fold-selectivity SKOV-3/OVISE over Comparator C ([1]; Table Q): (+) (The (+) sign in Table Q signifies desirable increased fold-selectivity of the exemplary compounds over Comparator C) | FS SKOV-3/OVISE ([1]; Table Q, cellular): > 7.1 | improvement in CDK2 OVISE cell potency over Comparator C ([1]; Table Q): 2 fold | improvement in potency against CDK2 (Ki) over Comparator C [2]: 0.5 fold | Ki [2, 6]: 59 nM | FS CDK1/CDK2 [2, 7]: 20 | FS CDK4/CDK2 [2, 8]: 64 | increased fold-selectivity CDK4/CDK2 over Comparator C ([2]; Table Q): (+) (The (+) sign in Table Q signifies desirable increased fold-selectivity of the exemplary compounds over Comparator C) | Ki [2, 9]: 59 nM | FS CDK1/CDK2 ([2]; Table Q, enzymatic): 20 | FS CDK4/CDK2 ([2]; Table Q, enzymatic): 64 | Ki [3]: 1200 nM | IC50 (SKOV-3 (ATCC HTB-77); SK-OV-3, Table O): > 20000 nM | IC50 (SKOV-3 (ATCC HTB-77); SK-OV-3, Table Q): > 20000 nM | Ki [4]: 3800 nM
